{"source": "paper PMC6719172", "about": "“Inhibition of CpLIP2 Lipase Hydrolytic Activity by Four Flavonols (Galangin, Kaempferol, Quercetin, Myricetin) Compared to Orlistat and Their Binding Mechanisms Studied by Quenching of Fluorescence” (Molecules, 2019)", "key": {"[1]": {"molecular_target": "CpLIP2 lipase (Candida parapsilosis, UniProt Q8NIN8)", "sequence (Q8NIN8 entry or part of it)": "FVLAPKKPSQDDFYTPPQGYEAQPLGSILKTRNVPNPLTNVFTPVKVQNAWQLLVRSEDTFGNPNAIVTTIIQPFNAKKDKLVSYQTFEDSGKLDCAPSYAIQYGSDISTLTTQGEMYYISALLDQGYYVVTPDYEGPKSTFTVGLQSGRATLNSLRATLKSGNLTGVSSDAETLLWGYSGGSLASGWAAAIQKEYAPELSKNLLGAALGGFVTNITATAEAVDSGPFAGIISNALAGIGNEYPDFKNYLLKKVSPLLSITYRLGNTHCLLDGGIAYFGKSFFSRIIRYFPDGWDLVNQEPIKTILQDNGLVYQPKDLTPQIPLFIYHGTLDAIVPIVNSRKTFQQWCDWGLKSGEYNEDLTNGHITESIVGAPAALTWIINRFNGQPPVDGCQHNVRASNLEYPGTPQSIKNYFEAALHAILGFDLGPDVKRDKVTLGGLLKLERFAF", "assay": "Quenching of CpLIP2 intrinsic tryptophan fluorescence by flavonols (Stern–Volmer, Lehrer, van't Hoff analysis)", "type": "binding", "conditions": "for KSV (Stern–Volmer quenching constant): CpLIP2 2.5 µM, pH 7.0, flavonol 2.5–25 µM (GAL 2.5–17.5 µM); for Kq (bimolecular quenching constant): Kq = KSV/τ0, τ0 1.59 ns; for KSV (accessible), Stern–Volmer quenching constant of the exposed W residues / fa (fraction of accessible W residues to the quencher): Lehrer equation; for ΔG (free energy change): ΔG = ΔH − TΔS; for Kd: Kd (dissociation constant)", "excerpt": "The fluorescence quenching spectra of CpLIP2 lipase submitted to increasing concentrations of GAL, KAE, QUE and MYR are shown in Figure 3. A remarkable quenching of the CpLIP2 fluorescence emission was observed. […] The fluorescence quenching is usually described by the linear Stern–Volmer Equations (2) and (3):(2) F0/F = 1 + Ksv [Q] = 1 + Kqτ0 [Q] (3) Kq=Ksv/τ0 where F0 and F are the intrinsic fluorescence intensities of CpLIP2 lipase (fluorophore) in absence or presence of quencher (flavonol), respectively. Kq is the bimolecular quenching constant, τ0 is the lifetime of the fluorophore in the absence of the quencher, [Q] is the concentration of the quencher, and KSV is the Stern–Volmer quenching constant.\nThe mechanism of quenching, occurring between CpLIP2 lipase and flavonols, was characterized by determining the values of Kq and the thermodynamic parameters by varying the temperature. […] In both cases, the bimolecular quenching constant Kq can be calculated by the ratio between KSV and τ0, itself determined at 1.59 ns for Human Pancreatic Lipase.\nThe inaccessible or buried residues are responsible for the remaining fluorescence, which is probably independent of the quencher concentration. […] An up-down curvature towards the x-axis has been shown for the four flavonols (Figure 4), indicating the presence of two populations of fluorophores, part of which would not be accessible. That means that some W residues are buried inside the lipase structure and that other residues are exposed to the solvent. Therefore, data were analyzed through the Lehrer equation, also known as the modified (or non-linear) Stern–Volmer Equation (4):(4) F0/ F0−F = 1/ fa Ksv 1/ [Q] +1/ fa\nFor static quenching, the equilibrium between free and bound CpLIP2 lipase, when the ligand molecules bind independently to equivalent sites of macromolecules, can be described by the following Equation (5):(5) log10F0−F/F=nlog10[Q]+log10Ka where Ka is the binding constant and n the number of binding sites per CpLIP2 molecule.\nThe results were determined for all flavonols tested at different temperatures from the plots of log10 F0 − F/F versus log10 [Q] and listed in Table 2. The plots show a linear relationship from which the slope equal to n and intercept on y-axis equal to log10 Ka. For the four flavonols, the Ka values increased when the temperatures increased. In addition, the n values were less than 1.0 in all cases and increased according to the temperature. […] Values of the dissociation constant of complexes were deduced from the Stern–Volmer Equation (6) and (7), for which Kd is expressed as the inverse of fa Ksv product. (6) F0/ F0−F= Kd 1/ [Q] +1 (7) Kd= 1/fa Ksv\nThermodynamic parameters were calculated to determine the type of binding forces that contribute in the CpLIP2 lipase–flavonol interactions. […] Both the enthalpy (ΔH) and entropy changes (ΔS) can be estimated from the following van′t Hoff Equation (8):(8) Ln Ka = − ΔH /RT + ΔS /R\nThe values of Gibbs binding free energy change (ΔG) are calculated from the following Equation (9):(9) ΔG= ΔH − TΔS\nTo fill up the volume of 300 µL by well, 190 µL of sodium phosphate buffer solution (75 mM, pH 7.0) was added to each well to obtain final concentration at 50 mM. Then, 100 µL of ethanol absolute–water ultrapure (2:8, v/v) solution was added to obtain a final amount of ethanol […] in the well of 300 µL. […] The final concentration of ethanol during the experiments never exceeded 0.07% (v/v). The last step was to add 10 µL of lipase after to have optimized the final concentration of CpLIP2 equal to 2.5 µM for all our assays, giving the optimal fluorescence intensity for all measurements. The measurement of intrinsic fluorescence started after mechanical shaking for 30 s inside the multi-plate reader. […]"}, "[2]": {"conditions": "cited from earlier work"}}}
{"smiles": "O=c1c(O)c(-c2ccc(O)cc2)oc2cc(O)cc(O)c12", "note": "[KAE, kaempferol]", "values": [{"measurement": "Ka (association constant)", "setting": "[1]; 298 K", "result": "458 ± 2.", "unit": "L·mol^−1"}, {"measurement": "n (number of binding sites)", "setting": "[1]; 298 K", "result": "0.63 ± 0.07"}, {"measurement": "KSV (Stern–Volmer quenching constant)", "setting": "[1]; 298 K", "result": "2.1 ± 0.2 × 10^4 L·mol^−1"}, {"measurement": "Kq (bimolecular quenching constant)", "setting": "[1]; 298 K", "result": "1.3e+13", "unit": "M⁻¹ s⁻¹"}, {"measurement": "KSV (accessible), Stern–Volmer quenching constant of the exposed W residues", "setting": "[1]; 298 K", "result": 140000, "unit": "L/mol"}, {"measurement": "fa (fraction of accessible W residues to the quencher)", "setting": "[1]; 298 K", "result": 0.45}, {"measurement": "ΔG (free energy change)", "setting": "[1]; 298 K", "result": -9.39, "unit": "kcal/mol"}, {"measurement": "Ka (association constant)", "setting": "[1]; 308 K", "result": "476 ± 4", "unit": "L/mol"}, {"measurement": "n (number of binding sites)", "setting": "[1]; 308 K", "result": "0.63 ± 0.07"}, {"measurement": "KSV (Stern–Volmer quenching constant)", "setting": "[1]; 308 K", "result": "1.9 ± 0.7 × 10^4 L·mol^−1"}, {"measurement": "Kq (bimolecular quenching constant)", "setting": "[1]; 308 K", "result": "1.2e+13", "unit": "M⁻¹ s⁻¹"}, {"measurement": "KSV (accessible), Stern–Volmer quenching constant of the exposed W residues", "setting": "[1]; 308 K", "result": 170000, "unit": "L/mol"}, {"measurement": "fa (fraction of accessible W residues to the quencher)", "setting": "[1]; 308 K", "result": 0.43}, {"measurement": "ΔG (free energy change)", "setting": "[1]; 308 K", "result": -9.7, "unit": "kcal/mol"}, {"measurement": "Ka (association constant)", "setting": "[1]; 318 K", "result": "862 ± 3", "unit": "L/mol"}, {"measurement": "n (number of binding sites)", "setting": "[1]; 318 K", "result": "0.69 ± 0.09"}, {"measurement": "KSV (Stern–Volmer quenching constant)", "setting": "[1]; 318 K", "result": "1.8 ± 0.7 × 10^4 L·mol^−1"}, {"measurement": "Kq (bimolecular quenching constant)", "setting": "[1]; 318 K", "result": "1.1e+13", "unit": "M⁻¹ s⁻¹"}, {"measurement": "KSV (accessible), Stern–Volmer quenching constant of the exposed W residues", "setting": "[1]; 318 K", "result": 150000, "unit": "L/mol"}, {"measurement": "fa (fraction of accessible W residues to the quencher)", "setting": "[1]; 318 K", "result": 0.42}, {"measurement": "ΔG (free energy change)", "setting": "[1]; 318 K", "result": -10, "unit": "kcal/mol"}, {"measurement": "Ka (association constant)", "setting": "[1]; 328 K", "result": "1290 ± 2", "unit": "L/mol"}, {"measurement": "n (number of binding sites)", "setting": "[1]; 328 K", "result": "0.75 ± 0.07"}, {"measurement": "KSV (Stern–Volmer quenching constant)", "setting": "[1]; 328 K", "result": "1.6 ± 0.6 × 10^4 L·mol^−1"}, {"measurement": "Kq (bimolecular quenching constant)", "setting": "[1]; 328 K", "result": "1e+13", "unit": "M⁻¹ s⁻¹"}, {"measurement": "KSV (accessible), Stern–Volmer quenching constant of the exposed W residues", "setting": "[1]; 328 K", "result": 150000, "unit": "L/mol"}, {"measurement": "fa (fraction of accessible W residues to the quencher)", "setting": "[1]; 328 K", "result": 0.34}, {"measurement": "ΔG (free energy change)", "setting": "[1]; 328 K", "result": -10.3, "unit": "kcal/mol"}, {"measurement": "Kd", "setting": "[1]; 298 K", "result": "16 ± 3", "unit": "µM"}, {"measurement": "Kd", "setting": "[1]; 308 K", "result": "14 ± 5", "unit": "µM"}, {"measurement": "Kd", "setting": "[1]; 318 K", "result": "16 ± 7", "unit": "µM"}, {"measurement": "Kd", "setting": "[1]; 328 K", "result": "19 ± 9", "unit": "µM"}, {"measurement": "order of magnitude of Kq", "setting": "[1]; all temperatures of Table 1", "result": "~10^13 L mol^−1 s^−1"}, {"measurement": "ΔS (entropy changes)", "setting": "[1]; van't Hoff plot, 298–328 K", "result": 0.13, "unit": "kJ·mol^−1·K^−1"}, {"measurement": "log10 P of partition between octanol and water phases", "setting": "[2]", "result": 3.5}]}
